Values of other authors, collected in patent US9301985B2, “Therapeutic agent for dementia” (Kibun Foods Inc., priority 2013, dated 2016).

Legend:
[1] = system: cerebrovascular dementia model and Alzheimer's disease model; settings: rat; cerebrovascular dementia model (vessel artificially clogged) and Alzheimer's disease model
k-opioid receptor = k-opioid receptor (Homo sapiens, UniProt P41145); settings: erinacine E derived from Hericium ramosum
[2] = system: nerve growth factor (NGF); settings: erinacine E derived from Hericium erinaceum

k-opioid receptor, sequence (P41145 whole entry): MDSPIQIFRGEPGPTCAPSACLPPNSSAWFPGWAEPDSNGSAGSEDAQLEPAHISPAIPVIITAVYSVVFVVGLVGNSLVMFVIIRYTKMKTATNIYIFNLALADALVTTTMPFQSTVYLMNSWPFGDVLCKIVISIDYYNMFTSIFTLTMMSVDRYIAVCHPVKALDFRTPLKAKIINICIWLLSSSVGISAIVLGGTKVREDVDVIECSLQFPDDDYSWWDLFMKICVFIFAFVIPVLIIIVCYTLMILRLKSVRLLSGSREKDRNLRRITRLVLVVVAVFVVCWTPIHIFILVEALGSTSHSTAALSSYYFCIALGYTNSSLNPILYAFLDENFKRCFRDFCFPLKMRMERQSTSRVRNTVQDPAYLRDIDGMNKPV

| Structure (SMILES) | memory retention and learning ability [1] | activity at k-opioid receptor (k-opioid receptor) | nerve growth factor (NGF) production [2] |
| --- | --- | --- | --- |
| CC(C)C1=C2C3=CC=C(C=O)C[C@H](O[C@@H]4OC[C@@H](O)[C@H](O)[C@H]4O)[C@]3(C)CC[C@@]2(C)CC1 [erinacine A] | apparent improvement | – | – |
| CC(C)C1=C2C3CC=C4C(O)C5(O)COC6OC(C4C6(O)C5O)C3(C)CCC2(C)CC1 (stereo not shown) [erinacine E] | – | agonist | action to accelerate |
| CCCCCCCCCCCCCCCC(=O)OCc1cc(OC)c(C/C=C(\C)CC(=O)C=C(C)C)c(O)c1C=O [hericenone C] | apparent improvement | – | – |
